Values after ≈ are worked out from the molar mass of the structure shown. Where two headings read alike, the source gives them in different places.
Assays:
[1] = Pharmacokinetics (plasma half-life); format: in vivo; conditions: SD Rat, mean value, read-out: Half-Life (T1/2)
Experimental: In order to investigate the pharmacokinetics properties of the compounds according to the present invention, the plasma half-life was determined in accordance with the method described in Antimicrobial Agents and Chemotherapy, 26(2), p.

[2] = system: S.marcescens C1052; assay: In vitro antibacterial activity, minimum inhibitory concentration; format: cell-based; conditions: Serratia marcescens
Text: (§1) As reference compounds, Cefotaxime (CTX), Ceftazidime (CAZ) and Cefpirome (CPR) were employed.

[3] = system: K.oxytoca C4022; assay: as above; format: cell-based; conditions: Klebsiella oxytoca
Text: as §1

[4] = system: S.aureus ATCC29213; assay: as above; format: cell-based; conditions: Staphylococcus aureus
Text: as §1

[5] = system: S.aureus C4036; assay: as above; format: cell-based; conditions: Staphylococcus aureus
Text: as §1

[6] = system: S.marcescens ATCC27117; assay: as above; format: cell-based; conditions: Serratia marcescens
Text: as §1

[7] = system: S.pyogenes C4003; assay: as above; format: cell-based; conditions: Streptococcus pyogenes
Text: as §1

[8] = system: P.aeruginosa ATCC27853; assay: as above; format: cell-based; conditions: Pseudomonas aeruginosa
Text: as §1

[9] = system: S.pyogenes ATCC 8668; assay: as above; format: cell-based; conditions: Streptococcus pyogenes
Text: as §1

[10] = system: K.pneumoniae C1040; assay: as above; format: cell-based; conditions: Klebsiella pneumoniae
Text: as §1

[11] = system: E.coli C4002; assay: as above; format: cell-based; conditions: Escherichia coli
Text: as §1

[12] = system: E.cloacae C4008; assay: as above; format: cell-based; conditions: Enterobacter cloacae
Text: as §1

[13] = system: P.aeruginosa C2027; assay: as above; format: cell-based; conditions: Pseudomonas aeruginosa
Text: as §1

[14] = system: P.mirabilis ATCC25933; assay: as above; format: cell-based; conditions: Proteus mirabilis
Text: as §1

[15] = system: P.rettgeri ATCC9919; assay: as above; format: cell-based; conditions: Providencia rettgeri
Text: as §1

[16] = system: K.pneumoniae ATCC10031; assay: as above; format: cell-based; conditions: Klebsiella pneumoniae
Text: as §1

[17] = system: S.epidermidis ATCC12228; assay: as above; format: cell-based; conditions: Staphylococcus epidermidis
Text: as §1

[18] = system: S.typhimurium C4045; assay: as above; format: cell-based; conditions: Salmonella enterica, read-out: Minimum Inhibitory Concentration (MIC)
Text: as §1

[19] = system: P.aeruginosa C4070; assay: as above; format: cell-based; conditions: Pseudomonas aeruginosa
Text: as §1

[20] = system: MRSA C2208; assay: as above; format: cell-based; conditions: Staphylococcus aureus, read-out: Minimum Inhibitory Concentration (MIC)
Text: as §1

[21] = system: E.coli ATCC25922; assay: as above; format: cell-based; conditions: Escherichia coli
Text: as §1

[22] = system: E.coli ATCC10536; assay: as above; format: cell-based; conditions: Escherichia coli
Text: as §1

[23] = system: S.Faecalis ATCC29212; assay: as above; format: cell-based; conditions: Enterococcus faecalis
Text: as §1

[24] = system: P.aeruginosa ATCC10145; assay: as above; format: cell-based; conditions: Pseudomonas aeruginosa
Text: as §1

[25] = system: E.cloacae C4009; assay: as above; format: cell-based; conditions: Enterobacter cloacae
Text: as §1

[26] = system: S.aureus Smith; assay: as above; format: cell-based; conditions: Staphylococcus aureus, read-out: Minimum Inhibitory Concentration (MIC)
Text: as §1

Work on `CC(C)(O/N=C(\C(=O)N[C@@H]1C(=O)N2C(C(=O)[O-])=C(C[n+]3ccccc3)CS[C@H]12)c1csc(N)n1)C(=O)O` [CAZ, Ceftazidime, reference compound] yielded a half-life ([1]; in vivo) of 12.3 min, an MIC ([2]; C1052, read-out: Minimum Inhibitory Concentration (MIC)) of 0.2 µg/mL (≈ 0.366 µM) and an MIC ([3]; C4022, read-out: Minimum Inhibitory Concentration (MIC)) of 0.78 µg/mL (≈ 1.43 µM). It also gave an MIC ([4]; ATCC29213, read-out: Minimum Inhibitory Concentration (MIC)) of 6.25 µg/mL (≈ 11.4 µM), an MIC ([5]; C4036, read-out: Minimum Inhibitory Concentration (MIC)) of 6.25 µg/mL (≈ 11.4 µM) and an MIC ([6]; ATCC27117, read-out: Minimum Inhibitory Concentration (MIC)) of 0.1 µg/mL (≈ 0.183 µM). It also gave an MIC ([7]; C4003, read-out: Minimum Inhibitory Concentration (MIC)) of 0.2 µg/mL (≈ 0.366 µM), an MIC ([8]; ATCC27853, read-out: Minimum Inhibitory Concentration (MIC)) of 3.13 µg/mL (≈ 5.73 µM) and an MIC ([9]; ATCC8668, read-out: Minimum Inhibitory Concentration (MIC)) of 0.1 µg/mL (≈ 0.183 µM). It also gave an MIC ([10]; C1040, read-out: Minimum Inhibitory Concentration (MIC)) of 0.05 µg/mL (≈ 0.0915 µM), an MIC ([11]; C4002, read-out: Minimum Inhibitory Concentration (MIC)) of 0.1 µg/mL (≈ 0.183 µM) and an MIC ([12]; C4008, read-out: Minimum Inhibitory Concentration (MIC)) of 0.05 µg/mL (≈ 0.0915 µM). It also gave an MIC ([13]; C2027, read-out: Minimum Inhibitory Concentration (MIC)) of 0.78 µg/mL (≈ 1.43 µM), an MIC ([14]; ATCC25933, read-out: Minimum Inhibitory Concentration (MIC)) of 0.05 µg/mL (≈ 0.0915 µM) and an MIC ([15]; ATCC9919, read-out: Minimum Inhibitory Concentration (MIC)) of 0.025 µg/mL (≈ 0.0457 µM). For the same compound, the MIC ([16]; ATCC10031, read-out: Minimum Inhibitory Concentration (MIC)) was 0.05 µg/mL (≈ 0.0915 µM), the MIC ([17]; ATCC12228, read-out: Minimum Inhibitory Concentration (MIC)) was 3.13 µg/mL (≈ 5.73 µM) and the MIC ([18]; TYPHIMURIUM) was 0.2 µg/mL (≈ 0.366 µM). It also gave an MIC ([19]; C4070, read-out: Minimum Inhibitory Concentration (MIC)) of 1.56 µg/mL (≈ 2.85 µM), an MIC ([20]; MRSA) of over 100 µg/mL and an MIC ([21]; ATCC25922, read-out: Minimum Inhibitory Concentration (MIC)) of 0.2 µg/mL (≈ 0.366 µM). It also gave an MIC ([22]; ATCC10536, read-out: Minimum Inhibitory Concentration (MIC)) of 0.05 µg/mL (≈ 0.0915 µM), an MIC [23] of over 100 µg/mL and an MIC ([24]; ATCC10145, read-out: Minimum Inhibitory Concentration (MIC)) of 1.56 µg/mL (≈ 2.85 µM). For the same compound, the MIC ([25]; C4009, read-out: Minimum Inhibitory Concentration (MIC)) was 0.05 µg/mL (≈ 0.0915 µM) and the MIC [26] was 6.25 µg/mL (≈ 11.4 µM).
With `CO/N=C(\C(=O)N[C@@H]1C(=O)N2C(C(=O)[O-])=C(C[n+]3cccc4c3CCC4)CS[C@H]12)c1csc(N)n1` [CPR, Cefpirome, reference compound] the half-life [1] was 19.5 min, the MIC ([2]; S.marcescens C1052, read-out: Minimum Inhibitory Concentration (MIC)) was 0.05 µg/mL (≈ 0.0972 µM) and the MIC ([3]; K.oxytoca C4022, read-out: Minimum Inhibitory Concentration (MIC)) was 1.56 µg/mL (≈ 3.03 µM). The MIC ([4]; S.aureus ATCC29213, read-out: Minimum Inhibitory Concentration (MIC)) was 0.78 µg/mL (≈ 1.52 µM), the MIC ([5]; S.aureus C4036, read-out: Minimum Inhibitory Concentration (MIC)) was 0.39 µg/mL (≈ 0.758 µM) and the MIC ([6]; S.marcescens ATCC27117, read-out: Minimum Inhibitory Concentration (MIC)) was 0.05 µg/mL (≈ 0.0972 µM). For the same compound, the MIC ([7]; S.pyogenes C4003, read-out: Minimum Inhibitory Concentration (MIC)) was 0.007 µg/mL (≈ 0.0136 µM), the MIC ([8]; P.aeruginosa ATCC27853, read-out: Minimum Inhibitory Concentration (MIC)) was 3.13 µg/mL (≈ 6.08 µM) and the MIC ([9]; ATCC8668, S.pyogenes ATCC 8668, read-out: Minimum Inhibitory Concentration (MIC)) was 0.007 µg/mL (≈ 0.0136 µM). The MIC ([10]; K.pneumoniae C1040, read-out: Minimum Inhibitory Concentration (MIC)) was 0.025 µg/mL (≈ 0.0486 µM), the MIC ([11]; E.coli C4002, read-out: Minimum Inhibitory Concentration (MIC)) was 0.05 µg/mL (≈ 0.0972 µM) and the MIC ([12]; E.cloacae C4008, read-out: Minimum Inhibitory Concentration (MIC)) was 0.013 µg/mL (≈ 0.0253 µM). For the same compound, the MIC ([13]; P.aeruginosa C2027, read-out: Minimum Inhibitory Concentration (MIC)) was 0.39 µg/mL (≈ 0.758 µM), the MIC ([14]; P.mirabilis ATCC25933, read-out: Minimum Inhibitory Concentration (MIC)) was 0.05 µg/mL (≈ 0.0972 µM) and the MIC ([15]; P.rettgeri ATCC9919, read-out: Minimum Inhibitory Concentration (MIC)) was 0.013 µg/mL (≈ 0.0253 µM). It also gave an MIC ([16]; K.pneumoniae ATCC10031, read-out: Minimum Inhibitory Concentration (MIC)) of 0.013 µg/mL (≈ 0.0253 µM), an MIC ([17]; S.epidermidis ATCC12228, read-out: Minimum Inhibitory Concentration (MIC)) of 0.2 µg/mL (≈ 0.389 µM) and an MIC ([18]; S.typhimurium C4045) of 0.025 µg/mL (≈ 0.0486 µM). For the same compound, the MIC ([19]; P.aeruginosa C4070, read-out: Minimum Inhibitory Concentration (MIC)) was 6.25 µg/mL (≈ 12.1 µM), the MIC ([20]; MRSA C2208) was over 100 µg/mL and the MIC ([21]; E.coli ATCC25922, read-out: Minimum Inhibitory Concentration (MIC)) was 0.05 µg/mL (≈ 0.0972 µM). For the same compound, the MIC ([22]; E.coli ATCC10536, read-out: Minimum Inhibitory Concentration (MIC)) was 0.013 µg/mL (≈ 0.0253 µM), the MIC [23] was 50 µg/mL (≈ 97.2 µM) and the MIC ([24]; P.aeruginosa ATCC10145, read-out: Minimum Inhibitory Concentration (MIC)) was 6.25 µg/mL (≈ 12.1 µM). The MIC ([25]; E.cloacae C4009, read-out: Minimum Inhibitory Concentration (MIC)) was 0.013 µg/mL (≈ 0.0253 µM) and the MIC ([26]; S.aureus Smith) was 0.39 µg/mL (≈ 0.758 µM).

Reference: patent US5389627A, “Cephem compounds” (priority 1993, dated 1995)
